Laboratory results from the NIST ThermoML archive (doi:10.1016/j.tca.2009.06.015).
± gives the expanded uncertainty stated by the source.

Experiments:
[1] = xn = mol fraction of the nth substance listed; details: 101 kPa, Liquid; for viscosity: Capillary tube (Ostwald / Ubbelohde) method; for mass density: Vibrating tube method
[2] = refractive index (Na D-line) (dimensionless); xn = mol fraction of the nth substance listed; details: 101 kPa, Liquid, Standard Abbe refractometry

## CCCCCC(C)O (centres undefined) [2-heptanol] + CC#N
[1]; 293.15 K, x2 = 0
  viscosity: 6.52 ± 0.66 mPa·s
  mass density: 817.18 ± 0.3 kg/m3
[1]; 293.15 K, x2 = 0.1142
  viscosity: 4.326 ± 0.44 mPa·s
  mass density: 814.97 ± 0.3 kg/m3
[1]; 293.15 K, x2 = 0.1947
  viscosity: 3.337 ± 0.34 mPa·s
  mass density: 813.16 ± 0.31 kg/m3
[1]; 293.15 K, x2 = 0.251
  viscosity: 2.77 ± 0.28 mPa·s
  mass density: 811.78 ± 0.31 kg/m3
[1]; 293.15 K, x2 = 0.3491
  viscosity: 2.133 ± 0.21 mPa·s
  mass density: 809.24 ± 0.31 kg/m3
[1]; 293.15 K, x2 = 0.4525
  viscosity: 1.584 ± 0.16 mPa·s
  mass density: 806.32 ± 0.31 kg/m3
[1]; 293.15 K, x2 = 0.5436
  viscosity: 1.239 ± 0.12 mPa·s
  mass density: 803.52 ± 0.31 kg/m3
[1]; 293.15 K, x2 = 0.6702
  viscosity: 0.8636 ± 0.087 mPa·s
  mass density: 798.9 ± 0.3 kg/m3
[1]; 293.15 K, x2 = 0.7574
  viscosity: 0.6732 ± 0.068 mPa·s
  mass density: 795.18 ± 0.31 kg/m3
[1]; 293.15 K, x2 = 0.9588
  viscosity: 0.3857 ± 0.039 mPa·s
  mass density: 784.77 ± 0.31 kg/m3
[1]; 293.15 K, x2 = 0.877
  mass density: 789.27 ± 0.31 kg/m3
[1]; 298.15 K, x2 = 0
  viscosity: 5.33 ± 0.54 mPa·s
  mass density: 813.33 ± 0.3 kg/m3
[1]; 298.15 K, x2 = 0.1142
  viscosity: 3.583 ± 0.36 mPa·s
  mass density: 811.07 ± 0.31 kg/m3
[1]; 298.15 K, x2 = 0.1947
  viscosity: 2.821 ± 0.28 mPa·s
  mass density: 809.19 ± 0.31 kg/m3
[1]; 298.15 K, x2 = 0.251
  viscosity: 2.402 ± 0.24 mPa·s
  mass density: 807.74 ± 0.31 kg/m3
[1]; 298.15 K, x2 = 0.3491
  viscosity: 1.853 ± 0.19 mPa·s
  mass density: 805 ± 0.31 kg/m3
[1]; 298.15 K, x2 = 0.4525
  viscosity: 1.395 ± 0.14 mPa·s
  mass density: 802.07 ± 0.31 kg/m3
[1]; 298.15 K, x2 = 0.5436
  viscosity: 1.106 ± 0.11 mPa·s
  mass density: 799.12 ± 0.31 kg/m3
[1]; 298.15 K, x2 = 0.6702
  viscosity: 0.7855 ± 0.079 mPa·s
  mass density: 794.43 ± 0.31 kg/m3
[1]; 298.15 K, x2 = 0.7574
  viscosity: 0.6191 ± 0.062 mPa·s
  mass density: 790.57 ± 0.31 kg/m3
[1]; 298.15 K, x2 = 0.9588
  viscosity: 0.3652 ± 0.037 mPa·s
  mass density: 779.64 ± 0.31 kg/m3
[1]; 298.15 K, x2 = 0.877
  mass density: 784.26 ± 0.31 kg/m3
[1]; 303.15 K, x2 = 0
  viscosity: 4.301 ± 0.43 mPa·s
  mass density: 809.44 ± 0.31 kg/m3
[1]; 303.15 K, x2 = 0.1142
  viscosity: 3.03 ± 0.3 mPa·s
  mass density: 807.06 ± 0.31 kg/m3
[1]; 303.15 K, x2 = 0.1947
  viscosity: 2.409 ± 0.24 mPa·s
  mass density: 805.14 ± 0.31 kg/m3
[1]; 303.15 K, x2 = 0.251
  viscosity: 2.066 ± 0.21 mPa·s
  mass density: 803.62 ± 0.31 kg/m3
[1]; 303.15 K, x2 = 0.3491
  viscosity: 1.619 ± 0.16 mPa·s
  mass density: 800.93 ± 0.31 kg/m3
[1]; 303.15 K, x2 = 0.4525
  viscosity: 1.251 ± 0.13 mPa·s
  mass density: 797.79 ± 0.31 kg/m3
[1]; 303.15 K, x2 = 0.5436
  viscosity: 0.9893 ± 0.099 mPa·s
  mass density: 794.69 ± 0.31 kg/m3
[1]; 303.15 K, x2 = 0.6702
  viscosity: 0.7174 ± 0.072 mPa·s
  mass density: 789.88 ± 0.31 kg/m3
[1]; 303.15 K, x2 = 0.7574
  viscosity: 0.5762 ± 0.058 mPa·s
  mass density: 786 ± 0.31 kg/m3
[1]; 303.15 K, x2 = 0.9588
  viscosity: 0.3483 ± 0.035 mPa·s
  mass density: 774.36 ± 0.31 kg/m3
[1]; 303.15 K, x2 = 0.877
  mass density: 779.5 ± 0.31 kg/m3
[1]; 308.15 K, x2 = 0
  viscosity: 3.528 ± 0.36 mPa·s
  mass density: 805.5 ± 0.31 kg/m3
[1]; 308.15 K, x2 = 0.1142
  viscosity: 2.578 ± 0.26 mPa·s
  mass density: 803.17 ± 0.31 kg/m3
[1]; 308.15 K, x2 = 0.1947
  viscosity: 2.072 ± 0.21 mPa·s
  mass density: 801.12 ± 0.31 kg/m3
[1]; 308.15 K, x2 = 0.251
  viscosity: 1.816 ± 0.18 mPa·s
  mass density: 799.49 ± 0.31 kg/m3
[1]; 308.15 K, x2 = 0.3491
  viscosity: 1.466 ± 0.15 mPa·s
  mass density: 796.53 ± 0.31 kg/m3
[1]; 308.15 K, x2 = 0.4525
  viscosity: 1.112 ± 0.11 mPa·s
  mass density: 793.31 ± 0.31 kg/m3
[1]; 308.15 K, x2 = 0.5436
  viscosity: 0.8985 ± 0.09 mPa·s
  mass density: 790.11 ± 0.31 kg/m3
[1]; 308.15 K, x2 = 0.6702
  viscosity: 0.6625 ± 0.067 mPa·s
  mass density: 785.23 ± 0.31 kg/m3
[1]; 308.15 K, x2 = 0.7574
  viscosity: 0.539 ± 0.054 mPa·s
  mass density: 781.16 ± 0.31 kg/m3
[1]; 308.15 K, x2 = 0.877
  viscosity: 0.4454 ± 0.045 mPa·s
  mass density: 774.15 ± 0.31 kg/m3
[1]; 308.15 K, x2 = 0.9588
  viscosity: 0.3326 ± 0.033 mPa·s
  mass density: 768.93 ± 0.31 kg/m3
[2]; 293.15 K, x2 = 0
  refractive index: 1.4206 ± 0.0021
[2]; 293.15 K, x2 = 0.1142
  refractive index: 1.417 ± 0.002
[2]; 293.15 K, x2 = 0.1947
  refractive index: 1.4145 ± 0.002
[2]; 293.15 K, x2 = 0.251
  refractive index: 1.4124 ± 0.002
[2]; 293.15 K, x2 = 0.3491
  refractive index: 1.4094 ± 0.002
[2]; 293.15 K, x2 = 0.4525
  refractive index: 1.4042 ± 0.002
[2]; 293.15 K, x2 = 0.5436
  refractive index: 1.3986 ± 0.002
[2]; 293.15 K, x2 = 0.6702
  refractive index: 1.3881 ± 0.002
[2]; 293.15 K, x2 = 0.7574
  refractive index: 1.3793 ± 0.002
[2]; 293.15 K, x2 = 0.877
  refractive index: 1.3637 ± 0.002
[2]; 293.15 K, x2 = 0.9588
  refractive index: 1.3516 ± 0.002
[2]; 298.15 K, x2 = 0
  refractive index: 1.4188 ± 0.0021
[2]; 298.15 K, x2 = 0.1142
  refractive index: 1.4158 ± 0.002
[2]; 298.15 K, x2 = 0.1947
  refractive index: 1.4146 ± 0.002
[2]; 298.15 K, x2 = 0.251
  refractive index: 1.4129 ± 0.002
[2]; 298.15 K, x2 = 0.3491
  refractive index: 1.4094 ± 0.002
[2]; 298.15 K, x2 = 0.4525
  refractive index: 1.4039 ± 0.002
[2]; 298.15 K, x2 = 0.5436
  refractive index: 1.3979 ± 0.002
[2]; 298.15 K, x2 = 0.6702
  refractive index: 1.3873 ± 0.002
[2]; 298.15 K, x2 = 0.7574
  refractive index: 1.3781 ± 0.002
[2]; 298.15 K, x2 = 0.877
  refractive index: 1.3629 ± 0.002
[2]; 298.15 K, x2 = 0.9588
  refractive index: 1.3503 ± 0.0021
[2]; 303.15 K, x2 = 0
  refractive index: 1.4165 ± 0.0021
[2]; 303.15 K, x2 = 0.1142
  refractive index: 1.4154 ± 0.002
[2]; 303.15 K, x2 = 0.1947
  refractive index: 1.4147 ± 0.002
[2]; 303.15 K, x2 = 0.251
  refractive index: 1.4135 ± 0.002
[2]; 303.15 K, x2 = 0.3491
  refractive index: 1.4093 ± 0.002
[2]; 303.15 K, x2 = 0.4525
  refractive index: 1.4029 ± 0.002
[2]; 303.15 K, x2 = 0.5436
  refractive index: 1.3973 ± 0.002
[2]; 303.15 K, x2 = 0.6702
  refractive index: 1.3863 ± 0.002
[2]; 303.15 K, x2 = 0.7574
  refractive index: 1.3774 ± 0.0021
[2]; 303.15 K, x2 = 0.877
  refractive index: 1.362 ± 0.0021
[2]; 303.15 K, x2 = 0.9588
  refractive index: 1.3481 ± 0.0021
[2]; 308.15 K, x2 = 0
  refractive index: 1.4143 ± 0.0021
[2]; 308.15 K, x2 = 0.1142
  refractive index: 1.4139 ± 0.0021
[2]; 308.15 K, x2 = 0.1947
  refractive index: 1.413 ± 0.0021
[2]; 308.15 K, x2 = 0.251
  refractive index: 1.4116 ± 0.0021
[2]; 308.15 K, x2 = 0.3491
  refractive index: 1.4079 ± 0.0021
[2]; 308.15 K, x2 = 0.4525
  refractive index: 1.4022 ± 0.002
[2]; 308.15 K, x2 = 0.5436
  refractive index: 1.3958 ± 0.0021
[2]; 308.15 K, x2 = 0.6702
  refractive index: 1.3845 ± 0.0021
[2]; 308.15 K, x2 = 0.7574
  refractive index: 1.3744 ± 0.0022
[2]; 308.15 K, x2 = 0.877
  refractive index: 1.3576 ± 0.0022
[2]; 308.15 K, x2 = 0.9588
  refractive index: 1.3452 ± 0.0022
